Holding throughout (assay): NCI tumour cell line growth inhibition, 48 h
Assay [1] deals with 786-0.
The subject of assay [2] is A498.
For assay [3], the system named is A549.
Assay [4] concerns HCT-116.
Assay [5] concerns HCT-15.
Assay [6] relates to Hs-578T.
Assay [7] deals with IGROV-1.
Assay [8] concerns LOX IMVI.
The subject of assay [9] is M14.
Assay [10] concerns MDA-MB-231.
The test system of assay [11] is NCI-H23.
For assay [12], the system named is OVCAR-3.
Assay [13] concerns OVCAR-4.
Assay [14] concerns OVCAR-5.
For assay [15], the system named is OVCAR-8.
The test system of assay [16] is SK-MEL-2.
For assay [17], the system named is SK-OV-3.
Assay [18] deals with SW-620.
In assay [19] the test system is T47D.
For assay [20], the system named is K562.

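Exposure lasted 48 hours, with cells grown in 96-well plates and compounds tested at five concentrations. Here, GI50 denotes the concentration required for 50% inhibition of growth.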 Activity calls are given as the source filed them. No stated cut-off is given here; in the data, active = GI50 up to about 1.1 µM and inactive = higher.

As to `CC(C)(C)NCC(O)c1ccc(O)c(CO)n1` (centres undefined), the GI50 was > 100 µM (inactive) in assay [1]; > 100 µM (inactive) in assay [2]; > 100 µM (inactive) in [3]; > 100 µM (inactive) in assay [4]; more than 100 µM in assay [5]; > 100 µM (inactive) in assay [6]. The GI50 in assay [7], in [8], in assay [9], in [10], in assay [11] and in assay [12] was > 100 µM (inactive) throughout. For the same molecule, the GI50 in assay [13], in assay [14], in assay [15], in assay [16], in assay [17] and in assay [18] was > 100 µM (inactive) throughout. Moreover, the GI50 in assay [19] was > 100 µM (inactive).

As for `CN(C)c1ccc(/C=C2\C[N+](C)(C)C/C(=C\c3ccc(N(C)C)cc3)C2=O)cc1`, the GI50 in assay [1] was 30.7 µM (inactive); in assay [2], > 100 µM (inactive); in [3] it was 20.7 µM (inactive); in assay [4], 8.93 µM (inactive); in assay [5] it was more than 100 µM; in [6], 50 µM (inactive). Also, the GI50 in assay [7] is 8.57 µM (inactive); in assay [20] it was 7.98 µM (inactive); in [8], 14.9 µM (inactive); in assay [9], 20.3 µM (inactive); in assay [10], 17.9 µM (inactive); in [11] it was 17.7 µM (inactive). Also, the GI50 was 5.9 µM (inactive) in assay [12]; 21.5 µM (inactive) in assay [13]; 38.9 µM (inactive) in assay [14]; 23.9 µM (inactive) in [15]; 14.9 µM (inactive) in assay [16]; 26.7 µM (inactive) in assay [17]. For the same molecule, the results for the GI50 in assay [18] and in assay [19] were 15.3 µM (inactive) and 16.5 µM (inactive), respectively.

In the case of `COc1cc(/C=N/n2c(C)n[nH]c2=O)cc(OC)c1OC`, the GI50 in assay [1] was > 100 µM (inactive); in assay [2], 23.4 µM (inactive); in assay [3] it was > 100 µM (inactive); in assay [4], > 100 µM (inactive); in [5], more than 100 µM; in [6], 0.583 µM (active). The GI50 in assay [20] was > 100 µM (inactive); in [9], > 100 µM (inactive); in [10] it was 57.5 µM (inactive); in assay [11], > 100 µM (inactive); in assay [12], 51.4 µM (inactive); in assay [13] it was > 100 µM (inactive). Also, the GI50 is 80.5 µM (inactive) in [14]; > 100 µM (inactive) in assay [15]; > 100 µM (inactive) in assay [16]; > 100 µM (inactive) in [17]; > 100 µM (inactive) in [18]; 71.3 µM (inactive) in assay [19].

As to `COc1cc(C(=O)O)c([N+](=O)[O-])c(OC)c1OC`, the GI50 was > 100 µM (inactive) in assay [1]; > 100 µM (inactive) in assay [2]; > 100 µM (inactive) in assay [3]; > 100 µM (inactive) in assay [4]; more than 100 µM in assay [5]; > 100 µM (inactive) in [6]. In addition, the GI50 in [7], in assay [8], in assay [9], in [10], in assay [11] and in assay [12] was > 100 µM (inactive) each time. In addition, the GI50 in assay [13] was > 100 µM (inactive); in assay [14], 63.2 µM (inactive); in assay [15], > 100 µM (inactive); in [16] it was > 100 µM (inactive); in [17] it was > 100 µM (inactive); in assay [18], > 100 µM (inactive). Also, in assay [19], the GI50 was > 100 µM (inactive).

As to `C=C(C)[C@@]1(O)CCCC[C@@H]1CC(Sc1ccccc1)Sc1ccccc1`, the GI50 in [1] is 17.8 µM (inactive); in [2], 29.9 µM (inactive); in [3] it was 13.9 µM (inactive); in [4], 12.5 µM (inactive); in [5], 15 µM; in assay [6], 15.7 µM (inactive). Besides, the GI50 in [7] was 16.4 µM (inactive); in [20], 14.2 µM (inactive); in assay [8] it was 14.6 µM (inactive); in assay [9], 17.9 µM (inactive); in assay [10], 17.1 µM (inactive); in [11] it was 14.2 µM (inactive). The GI50 in assay [13] was 13.6 µM (inactive); in [14], 16.3 µM (inactive); in assay [15], 19.5 µM (inactive); in assay [16], 12.8 µM (inactive); in [17], 19.6 µM (inactive); in [19] it was 12.4 µM (inactive).

As for `O=C1CC(CC(OCc2ccccc2)C(COCc2ccccc2)OCc2ccccc2)CC(=O)N1` (centres undefined), the GI50 in assay [1] is 32.4 µM (inactive); in assay [2] it was 30.3 µM (inactive); in [3], 27.4 µM (inactive); in assay [4], 23.6 µM (inactive); in assay [5] it was 31.9 µM; in assay [6], 44.2 µM (inactive). In addition, the GI50 in assay [7] was 70.5 µM (inactive); in assay [20] it was 33.7 µM (inactive); in assay [8], 34.3 µM (inactive); in [9] it was 39.4 µM (inactive); in assay [10], 50.2 µM (inactive); in assay [11], 43.1 µM (inactive). Moreover, the GI50 was 37.4 µM (inactive) in assay [12]; 38.4 µM (inactive) in [13]; 44.2 µM (inactive) in assay [14]; 31.9 µM (inactive) in [15]; 50.6 µM (inactive) in assay [18]; 27.9 µM (inactive) in assay [19].

`O=c1n(N=[S+]([O-])(c2ccccc2)c2ccccc2)c(=O)n2n1C1C=CC2CC1`: the GI50 was > 100 µM (inactive) in assay [1]; > 100 µM (inactive) in [2]; > 100 µM (inactive) in [3]; > 100 µM (inactive) in [4]; more than 100 µM in assay [5]; > 100 µM (inactive) in assay [6]. Besides, the GI50 in assay [7], in [20], in [8], in assay [9], in assay [10] and in assay [11] was > 100 µM (inactive) each time. For the same molecule, the GI50 in [12], in assay [14], in [15], in [16], in assay [17] and in assay [18] was > 100 µM (inactive) throughout. Moreover, in [19], the GI50 was > 100 µM (inactive).

In the case of `CC(CCC(=O)O)(c1ccc(O)cc1)c1ccc(O)cc1`, the GI50 in assay [1] is > 100 µM (inactive); in assay [2] it was > 100 µM (inactive); in [3], > 100 µM (inactive); in [4], > 100 µM (inactive); in assay [5], more than 100 µM; in assay [6] it was > 100 µM (inactive). The GI50 in assay [7], in [20], in assay [8], in assay [9], in assay [10] and in assay [11] was > 100 µM (inactive) each time. Further, the GI50 in assay [12], in assay [13], in assay [14], in [15], in [16] and in assay [18] was > 100 µM (inactive) throughout. Further, the GI50 in assay [19] was > 100 µM (inactive).

Consider `Cc1nc2ccccc2n1Cc1nnc(N)o1`, for which the GI50 is > 100 µM (inactive) in assay [1]; > 100 µM (inactive) in assay [2]; 53.3 µM (inactive) in assay [3]; > 100 µM (inactive) in assay [4]; more than 100 µM in assay [5]; > 100 µM (inactive) in assay [6]. The GI50 in assay [7], in [20], in assay [8], in [9], in assay [10] and in [11] was > 100 µM (inactive) in each case. Moreover, the GI50 in assay [12], in [14], in assay [15], in assay [16], in [17] and in assay [18] was > 100 µM (inactive) in each case. For the same molecule, in assay [19], the GI50 was > 100 µM (inactive).

Take `O=C(/C=C\c1ccccc1)N1CCc2ccccc2C1`: the GI50 in [1] is 87.5 µM (inactive); in assay [2], 53.2 µM (inactive); in assay [4], 34.6 µM (inactive); in [5] it was 55.8 µM; in [6] it was 60.7 µM (inactive); in assay [7], 73.8 µM (inactive). In addition, the GI50 in assay [20] is 19.4 µM (inactive); in [8] it was 79.1 µM (inactive); in [9], 60.5 µM (inactive); in [10], > 100 µM (inactive); in assay [11] it was 14.9 µM (inactive); in [13], 93.1 µM (inactive). Moreover, the GI50 in assay [15] was 51.9 µM (inactive); in [16] it was 31.3 µM (inactive); in assay [17], > 100 µM (inactive); in [18] it was 63.5 µM (inactive); in [19], 20.1 µM (inactive).

In the case of `CC1=NN(c2nc(N)nc(-c3cc4ccccc4oc3=N)n2)C(C)(C)C1`, the GI50 was 15.3 µM (inactive) in assay [1]; 27.7 µM (inactive) in [2]; 19.5 µM (inactive) in assay [3]; 19.6 µM (inactive) in [4]; 16.1 µM in [5]; 20.5 µM (inactive) in assay [6]. The GI50 in assay [7] is 15.3 µM (inactive); in [20] it was 18.9 µM (inactive); in assay [9], 20.6 µM (inactive); in assay [10], 20.1 µM (inactive); in assay [11] it was 16.1 µM (inactive); in assay [12], 17.7 µM (inactive). The GI50 was 17.4 µM (inactive) in [13]; 24.9 µM (inactive) in [14]; 26.1 µM (inactive) in assay [15]; 20 µM (inactive) in [16]; 18.8 µM (inactive) in assay [17]; 16.1 µM (inactive) in [19].

These data come from ChEMBL document CHEMBL1201862, “PubChem BioAssay data set” (2004).
